Results as given in patent publication US20110178179A1, “1-AMINO-ALKYLCYCLOHEXANE DERIVATIVES FOR THE TREATMENT OF COGNITIVE IMPAIRMENT IN TINNITUS” (MERZ PHARMA GmbH & CO. KGaA, priority 2008, published 2011).

Experiments:
[1] = tested on: subjects with subjective tinnitus of at least moderate severity; assay: Double-blind placebo-controlled pilot trial of neramexane in tinnitus: structured tinnitus interview, question 12/5 (concentration); format: in vivo, human; conditions: for Concentration: Affected (%) / Concentration: Affected n / Concentration: No effect (%) / Concentration: No effect n / Concentration: Prevented (%) / Concentration: Prevented n: ITT-LOCF
Method: (§1) In a double-blind, multicenter, randomized, placebo-controlled, parallel-group study, the efficacy of neramexane in subjects suffering from tinnitus of at least moderate severity was assessed. Approximately 100 patients, who fulfilled particular inclusion criteria and met none of particular exclusion criteria, were randomized to each of four double-blind treatment groups (neramexane mesylate 25, 50, 75 mg/d or placebo), resulting in approximately 400 patients in total.
(§2) The double-blind, 16-week treatment period consisted of a 4-week uptitration period and a 12-week fixed-dose treatment period at maintenance b.i.d. dosing. In case of poor tolerability, however, the investigator could consider a dose reduction by 25 mg/d (or placebo, respectively). After the treatment phase, there was a 4-week follow-up period with no active treatment and concomitant therapy restrictions. In total, this study involved seven study visits: screening, baseline, and at the end of weeks 4, 8, 12, 16, and 20.
(§3) Study medication was dispensed at Visit 2 (baseline, day 0). Each patient received one blister box containing 5 blister cards (including one reserve blister) of double-blind study medication (i.e., […]). Subjects were instructed to take 2 tablets twice daily (4 tablets/d), beginning the day after dispensing of the study medication, until they returned for their next study visit (Visit 3). For those subjects assigned to receive active medication, some placebo tablets were incorporated into the dosing regimen to ensure blinding during the uptitration period. The target fixed-maintenance dose of 25, 50, or 75 mg neramexane mesylate/d was administered starting with the fifth week of double-blind treatment and was continued throughout the study. At each of the subsequent visits (Visits 3, 4, and 5, corresponding to end of week 4, 8 and 12) patients received another blister box containing 5 blister cards for the 4 week intervals, with double-blind medication for the intervening treatment period until the next study visit.
Secondary Outcomes • THF-12 total score (values and absolute change from baseline) at all post-baseline visits except the endpoint visit. • Change in the THF-12 total score from Week 16 to Week 20 (values and absolute changes). • THF-12 factorial scores (values and absolute change from baseline, including the change from Week 16 to Week 20) at all post-baseline visits. • Hyperacusis questionnaire GÜF (“Geräuschüberempfindlichkeits-Fragebogen”), values and absolute change from baseline, including the change from Week 16 to Week 20, total and factorial scores at all post-baseline visits if hyperacusis was present. • Clinical global impression of change: item 27 of the tinnitus follow-up interview was summarized after dichotomization of the responses in any improvement (values 1, 2, 3) versus no improvement (values 4, 5, 6, 7) and in marked improvement (values 1, 2) versus no marked improvement (values 3, 4, 5, 6, 7). • Total score of HADS-D as well as the depression and anxiety subscale scores (values and absolute change from baseline, also the change from week 16 to week 20) at all post-baseline visits. • Values of tinnitus interview (initial and follow-up) at all post-baseline visits; absolute change from baseline and change from Week 16 to Week 20 for items 8, 9, 10, 19, 20, 21, 24, 25 and 26 of the follow-up interview.
All efficacy analyses were performed on the ITT population using the last-observation-carried-forward (LOCF) approach. For sensitivity purposes an analysis of the per-protocol set and of observed cases was performed additionally. All statistical tests used for testing the primary efficacy (confirmatory testing) and secondary efficacy criteria (exploratory), and all other statistical tests used for exploratory analyses were two-sided hypothesis tests performed at the 5% significance level. For all variables standard descriptive statistics were calculated.

[2] = tested on: subjects with subjective tinnitus of at least moderate severity; assay: Double-blind placebo-controlled pilot trial of neramexane in tinnitus: THF-12 (TBF-12) questionnaire; format: in vivo, human; conditions: for TBF-12 functional-communicational score, Actual Mean ± SD / TBF-12 functional-communicational score, Neramexane - Placebo LSMean Diff. ± SE / TBF-12 functional-communicational score, Change Mean ± SD / TBF-12 functional-communicational score, Change LSMean: ITT-LOCF; for TBF-12 functional-communicational score, Change Mean ± SD / TBF-12 functional-communicational score, Change LSMean: baseline to Week 16; for TBF-12 functional-communicational score, Change LSMean: ANCOVA
Method: The objective of this pilot project was to conduct a clinical trial to assess the efficacy of neramexane as a treatment for tinnitus. The primary objective of this study was to compare the efficacy, tolerability and safety of neramexane mesylate at three different dosages (25, 50 or 75 mg/d) with placebo in subjects with subjective tinnitus of at least moderate severity.
as §1, §2
Visit 1 (screening): After signing the consent form, the subject underwent a physical examination and clinical laboratory testing. Patient eligibility for the study was evaluated via a check of inclusion/exclusion criteria. An initial Tinnitus Interview was conducted. The subject also completed a Tinnitus-Beeinträchtigungs-Fragebogen (THF-12) (i.e., a 12-item German modified and validated version (Greimel K V et al., Tinnitus-Beeinträchtigungs-Fragebogen (THF-12). Manual. Frankfurt am Main: Swets & Zeitlinger B. V.; 2000) of the 25-item Tinnitus Handicap Inventory or THI (Newman C W, et al. Development of the Tinnitus Handicap Inven-tory. Arch Otolaryngol Head Neck Surg 1996; 122(2): 143-148; Newman C W, et al. Psychometric adequacy of the Tinnitus Handicap Inventory (THI) for evaluating treatment outcome. J Am Acad Audiol 1998; 9(2): 153-160.)), a Hospital Anxiety and Depression Scale—Depression Subscale (HADS-D) Questionnaire and a Hyperacusis (Geräuschüberempfindlichkeit-Fragenbogen (GÜF)) Questionnaire (if applicable).
as §3
Primary Outcome • The change in THF-12 total score from baseline (Visit 2) to the endpoint visit (Visit 6, i.e. Week 16) was the primary efficacy endpoint in this study. […]

[3] = biological target: α9/α10 nicotinic receptor (Rattus norvegicus, UniProt P43144+Q9JLB5); conditions: Plazas, et al., Eur J. Pharmacol., 2007; cited from earlier work
Chain of α9/α10 nicotinic receptor (P43144 26-479): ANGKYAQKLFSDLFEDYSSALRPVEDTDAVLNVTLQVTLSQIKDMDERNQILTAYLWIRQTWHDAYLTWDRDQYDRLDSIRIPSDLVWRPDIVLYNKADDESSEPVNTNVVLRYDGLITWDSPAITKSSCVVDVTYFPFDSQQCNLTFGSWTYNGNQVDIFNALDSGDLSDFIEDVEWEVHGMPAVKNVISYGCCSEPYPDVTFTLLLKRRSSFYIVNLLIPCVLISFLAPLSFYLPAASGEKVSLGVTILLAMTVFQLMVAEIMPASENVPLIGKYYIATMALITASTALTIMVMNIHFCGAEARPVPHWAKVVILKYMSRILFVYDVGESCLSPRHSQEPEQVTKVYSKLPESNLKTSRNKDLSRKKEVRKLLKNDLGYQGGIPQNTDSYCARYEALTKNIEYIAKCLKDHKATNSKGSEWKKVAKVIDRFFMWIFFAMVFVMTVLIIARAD
Chain of α9/α10 nicotinic receptor (Q9JLB5 25-447): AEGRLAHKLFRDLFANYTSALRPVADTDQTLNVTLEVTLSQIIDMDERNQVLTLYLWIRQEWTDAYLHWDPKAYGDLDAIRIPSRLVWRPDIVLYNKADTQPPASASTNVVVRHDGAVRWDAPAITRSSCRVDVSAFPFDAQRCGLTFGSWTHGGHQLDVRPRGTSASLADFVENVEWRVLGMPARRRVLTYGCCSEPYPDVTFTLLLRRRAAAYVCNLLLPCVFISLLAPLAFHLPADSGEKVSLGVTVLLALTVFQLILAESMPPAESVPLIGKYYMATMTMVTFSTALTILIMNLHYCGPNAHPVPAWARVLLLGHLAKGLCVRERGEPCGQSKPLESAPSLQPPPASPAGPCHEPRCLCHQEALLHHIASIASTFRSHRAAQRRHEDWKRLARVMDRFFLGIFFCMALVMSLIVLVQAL

[4] = final daily doses of 50 or 75 mg, 16 weeks, distinct from placebo or low-dose (25 mg)
[5] = Baseline, 25 mg/d group, N = 106
[6] = Baseline, 50 mg/d group, N = 106
[7] = Baseline, 75 mg/d group, N = 99
[8] = Week 16 or end of treatment, 25 mg/d, N = 101
[9] = Week 16 or end of treatment, 50 mg/d, N = 103
[10] = Week 16 or end of treatment, 75 mg/d, N = 93

Structure (SMILES): CC1(C)CC(C)(C)CC(C)(N)C1.CS(=O)(=O)O [neramexane mesylate]
- improvement of concentration, question 12/5 of the structured tinnitus interview [1, 4]: clear improvement of their concentration
- improvement of tinnitus as measured by the THF-12 ([2]; final daily doses of 50 or 75 mg, 16-week double-blind treatment, distinct from placebo or low-dose (25 mg)): clear improvement of their tinnitus
- improvement of cognition, item one (concentration) and item two (focused attention) of the functional-communicational subscore of the THF-12 [2, 4]: clear improvement of their cognition

Structure (SMILES): CC1(C)CC(C)(C)CC(C)(N)C1 [Neramexane, 1-amino-1,3,3,5,5-pentamethylcyclohexane]
- Concentration: Affected (%) [1, 5]: (82.1) %
- Concentration: Affected n [1, 5]: 87
- Concentration: No effect (%) [1, 5]: (12.3) %
- Concentration: No effect n [1, 5]: 13
- Concentration: Prevented (%) [1, 5]: (5.7) %
- Concentration: Prevented n [1, 5]: 6
- Concentration: Affected (%) [1, 6]: (84.0) %
- Concentration: Affected n [1, 6]: 89
- Concentration: No effect (%) [1, 6]: (9.4) %
- Concentration: No effect n [1, 6]: 10
- Concentration: Prevented (%) [1, 6]: (6.6) %
- Concentration: Prevented n [1, 6]: 7
- Concentration: Affected (%) [1, 7]: (73.7) %
- Concentration: Affected n [1, 7]: 73
- Concentration: No effect (%) [1, 7]: (19.2) %
- Concentration: No effect n [1, 7]: 19
- Concentration: Prevented (%) [1, 7]: (7.1) %
- Concentration: Prevented n [1, 7]: 7
- Concentration: Affected (%) [1, 8]: (81.2) %
- Concentration: Affected n [1, 8]: 82
- Concentration: No effect (%) [1, 8]: (17.8) %
- Concentration: No effect n [1, 8]: 18
- Concentration: Prevented (%) [1, 8]: (1.0) %
- Concentration: Prevented n [1, 8]: 1
- Concentration: Affected (%) [1, 9]: (73.8) %
- Concentration: Affected n [1, 9]: 76
- Concentration: No effect (%) [1, 9]: (24.3) %
- Concentration: No effect n [1, 9]: 25
- Concentration: Prevented (%) [1, 9]: (1.9) %
- Concentration: Prevented n [1, 9]: 2
- Concentration: Affected (%) [1, 10]: (73.1) %
- Concentration: Affected n [1, 10]: 68
- Concentration: No effect (%) [1, 10]: (23.7) %
- Concentration: No effect n [1, 10]: 22
- Concentration: Prevented (%) [1, 10]: (3.2) %
- Concentration: Prevented n [1, 10]: 3
- activity at α9/α10 nicotinic receptor [3]: α9/α10 nicotinic receptor antagonist
- TBF-12 functional-communicational score, Actual Mean ± SD ([2]; Baseline, 25 mg/d group, n=106): 5.0 ± 2.1
- TBF-12 functional-communicational score, Actual Mean ± SD ([2]; Baseline, 50 mg/d group, n=106): 5.2 ± 1.9
- TBF-12 functional-communicational score, Actual Mean ± SD ([2]; Baseline, 75 mg/d group, n=99): 5.1 ± 2.2
- TBF-12 functional-communicational score, Neramexane - Placebo LSMean Diff. ± SE ([2]; Week 16, 25 mg/d vs placebo): 0.0 ± 0.2
- TBF-12 functional-communicational score, Actual Mean ± SD ([2]; Week 16, 25 mg/d, n=106): 4.3 ± 2.5
- TBF-12 functional-communicational score, Neramexane - Placebo LSMean Diff. ± SE ([2]; Week 16, 50 mg/d vs placebo): −0.5 ± 0.2
- TBF-12 functional-communicational score, Actual Mean ± SD ([2]; Week 16, 50 mg/d, n=106): 3.9 ± 2.2
- TBF-12 functional-communicational score, Neramexane - Placebo LSMean Diff. ± SE ([2]; Week 16, 75 mg/d vs placebo): −0.4 ± 0.2
- TBF-12 functional-communicational score, Actual Mean ± SD ([2]; Week 16, 75 mg/d, n=99): 4.0 ± 2.5
- TBF-12 functional-communicational score, Change Mean ± SD ([2]; 25 mg/d): −0.7 ± 1.5
- TBF-12 functional-communicational score, Change LSMean ([2]; 25 mg/d): −0.7
- TBF-12 functional-communicational score, Change Mean ± SD ([2]; 50 mg/d): −1.2 ± 2.0
- TBF-12 functional-communicational score, Change LSMean ([2]; 50 mg/d): −1.2
- TBF-12 functional-communicational score, Change Mean ± SD ([2]; 75 mg/d): −1.1 ± 1.8
- TBF-12 functional-communicational score, Change LSMean ([2]; 75 mg/d): −1.0
- effect on cognitive function in patients with tinnitus (conclusion of Example 1) ([2]; patients with tinnitus): capability to improve cognitive function
